Measured values taken from US4221793A, “N,N'-Disubstituted piperazine derivative” (priority 1977, dated 1980).
Values after ≈ are worked out from the molar mass of the structure shown. Read-outs that look alike come from different tables or passages of the source.

Key:
[1] = tested on: isolated guinea-pig heart; assay: Activity on the isolated guinea-pig heart (Langendorff): coronary circulation and contraction level; settings: for Effect on coronary vessels / circulation / Influence on contraction level of the isolated heart: in words
[2] = tested on: isolated guinea-pig intestines; assay: Spasmolytic activity on isolated guinea-pig intestines (Magnus); settings: for IC50: Cavia porcellus
Description: The compound according to the invention has also been examined for its influenece on coronary circulation and on the heart mechanogram in isolated guinea-pig hearts according to the method of Langendorff (Langendorff, O., Pfluegers Arch. 61 (1895), 219) as well as for its spasmolytic activity on isolated guinea-pig intestines according to the method of Magnus (Magnus, R., Pflugers Arch. 102 (1904), 123). In this latter case, the spasmolytic activity was determined in relation to 0.2 μg/ml of histamine and 100 μg/ml of barium chloride.

[3] = Side-effect activities (cardiotoxic, central nervous system, sedation, vegetative nervous system); settings: therapeutically relevant doses
mice [4] = settings: mouse, in vivo, po
[5] = Acute toxicity test on mice (LD50); settings: mouse, in vivo
mice [6] = assay: Acute toxicity test on mice (LD50); settings: in words
mice [7] = assay: Tetrabenazine catalepsy test on mice, influence on the duration of catalepsy; assay type: in vivo, mouse; settings: for Effect in tetrabenazine catalepsy test compared with imipramine: in words
Description: (§1) The pharmacological activity of the substance according to the invention was investigated in the tetrabenazine catalepsy test and in the reserpine antagonism test at the mouse.
Mice in groups of 10 animals each were given 15 mg/kg of tetrabenazine i.p. 30 minutes after administration of the test substance. The onset of a cataleptic condition is assessed on a 2-step round cork on to which the animals are placed so that they touch the bottom step with their head and forepaws and the upper step with their hind paws. Such a position is corrected immediately by a normal animal. For assessment, the reaction of the animals is observed every 60 seconds. The inhibition of catatonia is calculated in percentage values in relation to a control group.

mice [8] = assay: Reserpine antagonism test on mice; assay type: in vivo, mouse; settings: in words
Description: as §1

[9] = against 0.2 μg/ml histamine, read-out: Spasmolytic activity as ED50 relative to histamine
[10] = against 100 μg/ml barium chloride, read-out: Spasmolytic activity as ED50 relative to BaCl2

CN(C)CCCN1c2ccccc2CCc2ccccc21 [Imipramine]
activation at 0.01 mg ([1]; Cavia porcellus, dose 10 μg, first value of pair, read-out: Change in coronary circulation (initial brief increase)): 19% | inhibition at 0.01 mg ([1]; Cavia porcellus, dose 10 μg, read-out: Influence on contraction level): 25% | inhibition at 0.01 mg ([1]; Cavia porcellus, dose 10 μg, second value of pair, read-out: Change in coronary circulation (subsequent constriction)): 18% | activation at 0.02 mg ([1]; Cavia porcellus, dose 20 μg, first value of pair, read-out: Change in coronary circulation (initial brief increase)): 28% | inhibition at 0.02 mg ([1]; Cavia porcellus, dose 20 μg, read-out: Influence on contraction level): 25% | inhibition at 0.02 mg ([1]; Cavia porcellus, dose 20 μg, second value of pair, read-out: Change in coronary circulation (subsequent constriction)): 29% | activation at 0.03 mg ([1]; Cavia porcellus, dose 30 μg, first value of pair, read-out: Change in coronary circulation (initial brief increase)): 84% | inhibition at 0.03 mg ([1]; Cavia porcellus, dose 30 μg, read-out: Influence on contraction level): 50% | inhibition at 0.03 mg ([1]; Cavia porcellus, dose 30 μg, second value of pair, read-out: Change in coronary circulation (subsequent constriction)): 22% | Effect on coronary vessels / circulation [1]: causes initially a brief increase in circulation, this then changes to a constriction | Influence on contraction level of the isolated heart [1]: heart damage which is shown by the reduction of the heart contraction | IC50 [2, 9]: 0.001 µg/mL (≈ 0.00357 µM) | IC50 [2, 10]: 0.1 to 1 µg/mL (≈ 0.357 to 3.57 µM)

COc1ccc2oc(C(=O)N3CCN(Cc4ccccc4)CC3)cc2c1 [According to the invention, N-(5-Methoxybenzofuran-2-ylcarbonyl)-N'-benzylpiperazine]
Cardiotoxic activity [3]: has not shown in therapeutically relevant doses any cardiotoxic | Central nervous system stimulation activity [3]: has not shown | Influence on the vegetative nervous system [3]: has not shown | Sedation activity [3]: has not shown | activation at 0.05 mg ([1]; Cavia porcellus, dose 50 μg, read-out: Change in coronary circulation): 39% | inhibition at 0.05 mg ([1]; Cavia porcellus, dose 50 μg, read-out: Influence on contraction level): 0% | Effect on coronary vessels / circulation [1]: causes a dilation of the coronary vessels | Influence on contraction level of the isolated heart [1]: does not influence the contraction level of the isolated heart | Compatibility (tolerability) compared with comparison preparation (mice [4]): more than ten times more compatible than the comparison preparation | LD50 ([5]; ip): 548 mg/kg | LD50 ([5]; po): > 4000 mg/kg | Toxicity compared with imipramine (mice [6]): considerably lower toxicity | Change of duration of catalepsy relative to control (mice [7]; 20 mg/kg p.o., 20 min post appl., n=40): -62 ± 26% | Effect in tetrabenazine catalepsy test compared with imipramine (mice [7]): substantially stronger effect than the comparison substance | Effect in tetrabenazine catalepsy test compared with imipramine (mice [7]; listed as substance according to the invention): substantially stronger effect than the commercially available comparison substance, imipramine | Activity in reserpine antagonism test compared with comparison substance (mice [8]): substantially equal in activity compared with the comparison substance | IC50 [2, 9]: 5 to 10 µg/mL (≈ 14.3 to 28.5 µM) | IC50 [2, 10]: 5 to 10 µg/mL (≈ 14.3 to 28.5 µM) | Spasmolytic activity ([2]; in words): only small | Influence on the peripheral vegetative nervous system ([2]; in words, concluded from spasmolytic activity): influenced only slightly, if at all
